Laboratory results taken from patent US20150025031A1, “METABOLIC DOWNREGULATION FOR CELL SURVIVAL” (WAKE FOREST UNIVERSITY HEALTH SCIENCES, priority 2012, published 2015).
“Also recorded” adds a separate entry of the source.

Legend:
[1] = system: Rat tibialis anterior (TA) muscle tissues; assay: In vitro ischemic tibialis anterior muscle tissue survival (H&E, TUNEL); assay type: cell-based, Sprague Dawley rats; settings: 5 mM injected, 3 days incubation
Description: Rat tibialis anterior (TA) muscle tissues were dissected immediately after sacrifice of Sprague Dawley rats (17 weeks old, 380-400 g, Harlan), injected with blank, 5 mM of adenosine or cladribine, and then incubated in 5 mL of complete media for 3 days.
The tissue samples were fixed in 10% neutral buffered formalin (Sigma-Aldrich), 6 μm sections were generated by a cryotome (Leica), and stained with hematoxyline and eosin (H&E) and with TUNEL staining. Microscopic analyses were performed using a light microscope (Zeiss M1) and ImagePro software.

ischemic skin flap = assay: Ischemic skin flap model; assay type: in vivo, nude mice; settings: 100 mM in 2% agarose gel, vs control
Description: (§1) Skin flap model: The u-shaped skin flaps were created on the back of the nude mice, then silicone sheet with 100 mM CDA-containing 2% agarose gel on top of it was placed subcutaneously between muscle and skin layer (FIGS. 9A-9B). Control group received only the materials without CDA incorporated (n=3 per each group). At day 3, the flap necrosis was photographed, and H&E sections were prepared and microscopically examined.
as §1, with “The” for “Skin flap model: The”, “gel (A9045, Sigma)” for “gel”, “(FIG. 29A).” for “(FIGS. 9A-9B).”, “(n=3).” for “(n=3 per each group).”, “were” for “were prepared and”

C2C12 mouse myoblasts [2] = system: C2C12 mouse myoblasts
C2C12 mouse myoblasts [3] = settings: 5 mM, regardless of the presence of ADA
[4] = target: T1, adenosine deaminase (ADA) (Homo sapiens, UniProt P00813); assay: Cell viability with adenosine derivatives in presence or absence of ADA, normoxic conditions (Example 2); assay type: cell-based; settings: for conversion by ADA / stability towards adenosine degrading enzymes: presence of ADA
T1 construct: purchased Sigma
T1 sequence (P00813 1-363): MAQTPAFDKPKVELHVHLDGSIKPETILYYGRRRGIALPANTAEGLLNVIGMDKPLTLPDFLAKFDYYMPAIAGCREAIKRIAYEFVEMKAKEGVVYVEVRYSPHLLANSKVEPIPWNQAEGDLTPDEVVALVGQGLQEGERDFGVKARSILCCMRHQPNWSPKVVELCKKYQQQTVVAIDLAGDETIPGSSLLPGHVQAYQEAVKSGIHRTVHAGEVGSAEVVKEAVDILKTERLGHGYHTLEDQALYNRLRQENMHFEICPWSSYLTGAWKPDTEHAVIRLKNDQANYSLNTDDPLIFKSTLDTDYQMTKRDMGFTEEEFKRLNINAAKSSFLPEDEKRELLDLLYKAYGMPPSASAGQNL
Description: Three known ADA inhibitors were examined to evaluate the efficacies of adenosine derivatives: cladribine, pentostatin, and fludarabine phosphate. They have similar structures and molecular weights compared to adenosine, but different functional groups in the structures. Metabolic rate of cells were indirectly analyzed by cell viability in the presence or absence of adenosine derivatives and ADA in various doses. Cell viability with the drugs was evaluated under normoxic conditions.
Adenosine (Sigma-Aldrich), cladribine (Sigma, 2-Chloro-2′-deoxyadenosine), pentostatin (Tocris biosciences), and fludarabine phosphate (LGM Pharma) were used throughout this study.

[5] = system: tibialis anterior (TA) muscle; assay: Compartment syndrome (compression injury) model, tibialis anterior muscle function; assay type: in vivo, Sprague Dawley rats; settings: for recovery in muscle function vs control group / percent recovery of muscle function: tetanic outcome at 100 Hz
Description: Compartment syndrome model: Neonatal blood pressure cuffs were placed on the hind limbs of Sprague Dawley rats. A pressure of 130-140 mmHg was held for 3 hrs to induce compartment syndrome in the tibialis anterior (TA) muscle. The experimental group received 50 mM CDA in 300 uL saline daily up to day 2 after injury whereas the control group only received an equal volume of saline (n=6 per each group). The measurement of muscle tetanic force was used to assess in vivo muscle function at before injury and day 3 & 7.
All animal studies were performed in strict compliance with Wake Forest University IACUC and NIH guidelines. Male Lewis rats (6-8 weeks old, Harlan) were anesthetized with 2-3% isofluorane prior to all procedures. A #2 sized neonatal blood pressure cuff (Trimline Medical Products Tempa-Kuff) was tightened around the hind limb proximal to the extensor digitorum longus (EDL) muscle. The time and amount of pressure used varied as indicated. Due to the extended length of anesthesia, rats were administered IP injections of saline over the course of the procedure. Rats were euthanized at 1, 2, 4, 7, 14 or 35d post injury. At least 3 separate experiments were analyzed.
Neonatal blood pressure cuffs were placed on the hind limbs of Sprague Dawley rats. A pressure of 130-140 mmHg was held for 3 hours to induce compartment syndrome in the tibialis anterior (TA) muscle. The experimental group received injection of 30 mM cladribine in 200 μL saline daily up to day 2 after injury whereas the control group only received an equal volume of saline (n=6). The measurement of muscle tetanic force was used to assess in vivo muscle function at before and right after injury, day 3, 7, 11 and 14.
Contractile function (i.e., torque-frequency relationship) of the left anterior crural muscles was measured in vivo using similar methodology as previously described for mice (Kalka et al., 2000, Proc Natl Acad Sci USA 97:3422-3427; Boutilier, 2001, J Exp Biol 204:3171-3181) After rats were anesthetized (2-2.5% isoflurane), the left hindlimb was aseptically prepared. The rat was then placed on a heated platform. The left knee was clamped and the left foot was secured to a custom-made foot plate that is attached to the shaft of an Aurora Scientific 305C-LR-FP servomotor, which in turn was controlled using a PC. Sterilized percutaneous needle electrodes were inserted through the skin for stimulation of the left common peroneal nerve. Electrical stimulus was applied using a Grass S88 stimulator with a constant current SIU (Grass Model PSIU6). Stimulation voltage and needle electrode placement were optimized first with a series of twitch contractions at 1 hz and then with 5 to 10 isometric contractions (400 ms train of 0.05-0.1 ms pulses at 100 Hz). Contractile function of the anterior crural muscles was assessed by measuring maximal isometric torque as a function of stimulation frequency (1-200 Hz). For real-time analysis of torque and length changes, voltage outputs were sampled at 4000 Hz, converted to a digital signal using an A/D board (National Instruments PCI 6221) and recorded using a PC loaded with a custom-made Labview®-based program (provided by the U.S. Army Institute of Surgical Research).

## Nc1nc(Cl)nc2c1ncn2[C@H]1C[C@H](O)[C@@H](CO)O1 [cladribine, 2-Chloro-2′-deoxyadenosine]
[1]
  muscle structure (H&E): most preserved muscle structure
  number of live nuclei (TUNEL): increased number of live nuclei
[1]; vs control and adenosine
  area of fiber: significantly increased area of fiber
Ischemic skin flap; 3 days
  histological examination of skin flap (H&E): better preservation of general tissue architecture, thickness of the skin and epidermis height
Ischemic skin flap; subcutaneous, day 3 post-operation
  distal flap necrosis (skin discoloration): clearly reduced
C2C12 mouse myoblasts [2]; 5 mM, with or without ADA
  metabolism after drug and hypoxia removed: regained metabolism activity
C2C12 mouse myoblasts [2]; 5 mM, with or without ADA, MTS
  cellular metabolism under hypoxia: kept in hypometabolic steady state without being affected by ADA
C2C12 mouse myoblasts [2]; hypoxia, in the presence and absence of ADA
  metabolic activity per cell vs adenosine treated cells: significantly lower metabolic activity per cell
C2C12 mouse myoblasts [3]; 7 days hypoxia
  cell population under hypoxic condition: maintained minimal population with significant difference when compared to control
C2C12 mouse myoblasts [3]
  proliferation after drug and hypoxia removed: regained their proliferation capability
[4]; drugs removed on day 5
  recovery of metabolic state after drug removal: recovered their normal metabolic state once the drugs were removed
[4]; normoxic conditions, with or without ADA, various doses
  depression of cell metabolic rate (cell viability) in presence of ADA: best able to inhibit ADA and depress the cells' metabolic rate; also recorded: maintained the cells in hypometabolic steady state the longest
[4]
  conversion by ADA / stability towards adenosine degrading enzymes: bypassed the conversion by ADA
[4]; listed as CDA
  conversion by ADA / stability towards adenosine degrading enzymes: more stable than adenosine in the presence of adenosine degrading enzymes
[5]; 30 mM in 200 μL saline daily up to day 2, 7 days after injury
  TA muscle twitch isometric torque: significantly increased
[5]; 30 mM in 200 μL saline daily up to day 2
  recovery in muscle function vs control group: significant acceleration of recovery in muscle function
[5]; 30 mM in 200 μL saline daily up to day 2, listed as CDA
  recovery in muscle function vs control group: significant increase in percent recovery up to day 11
[5]; 30 mM in 200 μL saline daily up to day 2, vs saline group
  newly forming vessels (H&E, immunostaining): more newly forming vessels
[5]; 50 mM in 300 uL saline daily up to day 2, 7 days after injury
  anterior crural muscle twitch isometric torque: significantly increased
[5]; day 3, 50 mM in 300 uL saline daily up to day 2
  percent recovery of muscle function: ~10%
[5]; day 7, 50 mM in 300 uL saline daily up to day 2
  percent recovery of muscle function: ~35%
